Reference: US20140242609A1, “Diagnosis and treatment of kidney stones, methods and compositions therefor” (Washington University, priority 2013, published 2014)

What was measured:
claudin-14 protein = claudin-14 protein levels in freshly isolated TALH cells pooled from treated mouse kidneys (western blot); type: in vivo; conditions: for claudin-14 protein levels, change: 30 mg/kg BW−1 per day for 6 days, 24 hrs following the last treatment
Method: (§1) An immunomagnetic separation method was used to isolate the TAL cells from the mouse kidney (Hou et al., 2009). Antibodies against the TAL cell specific surface antigen, Tamm-Horsfall protein (THP), were coated onto the paramagnetic polystyrene beads (Dynabeads M-280; Dynal), allowing immunoprecipitation of the TAL cells from collagenase digested mouse kidneys. The isolated cells were plated in DMEM medium supplemented with 10% FBS, penicillin/streptomycin, and 1 mM sodium pyruvate for 16 hours, followed by immediate transfection with NFAT or antagomirs.
Because of the low abundance of claudin-14 proteins in the whole kidney, an immunomagnetic separation method was adapted to freshly isolate the TALH tubular cells from the kidneys of each treated mouse, pooled the TALH cells from all animals (N=5) within each treatment group and quantified claudin-14 protein levels by western blot. […] Claudin-14 proteins were immunostained in mouse kidneys to investigate changes in TJ localization.
as §1, with “TALH” for “TAL”, “kidney. (Gong Y,” for “kidney (Hou”, “al. 2012 and Gong Y, et al. 2013)” for “al., 2009).”, “protein,” for “protein (THP),”, “treatment.” for “transfection with NFAT or antagomirs.”
as §1, with “TALH” for “TAL”, “kidney. (Gong, Y.,” for “kidney (Hou”, “2012; Hou, J., et al., 2009)” for “2009).”, “(THP; a GPI-anchored protein that is exclusively expressed in the TALH and the early part of the DCT,) (Stricklett, P. K., et al., 2003; Bernascone, I., et al., 2010)” for “(THP),”, “NFAT.” for “NFAT or antagomirs.”
Changes in claudin-14 protein levels were captured as early as 2 hrs following a single oral dose of NPS2143 or cinacalcet (30 mg/kg BW^−1) treatment. Because of the low abundance of claudin-14 proteins in the whole kidney, the inventors adapted an immunomagnetic separation method to freshly isolate the TALH tubular cells from the kidneys of each treated mouse (described in Gong, Y., et al., 2012 and Hou, J., et al. 2009; see Methods), pooled the TALH cells from all animals (N=5) within each treatment group, isolated plasma membrane proteins and quantified claudin-14 protein levels by western blot. […] Although claudins were previously considered static molecules sequestered in the tight junction, several recent studies have found similarly rapid turnover rate of less than 60 min for claudins (see Discussion). Claudin-14 proteins were inummuostained in mouse kidneys to investigate changes in TJ localization.

pri-miR-374 = pri-miR-374 transcript levels in TALH of treated mouse kidneys (real-time PCR); type: in vivo; conditions: for pri-miR-374 levels versus control: 8 hrs
From the text: (§2) Total RNA including microRNA was extracted using Trizol (Invitrogen). Cellular mRNA was reverse transcribed using the Superscript-III kit (Invitrogen), followed by real-time PCR amplification using SYBR Green PCR Master Mix (Bio-Rad) and Eppendorf Realplex2S system. The design of claudin-14 primers was described above. The design of pri-miRNA primers was according to Ma et al., (2010). Results were expressed as 2^−ΔCt values with ΔCT=Ctgene−Ctβ-actin.
(§3) To measure the transcriptional level for microRNA gene in vivo in the kidney, the inventors designed primers (see Methods; Table 2) to amplify the pri-miRNA molecule, the original transcript for microRNA gene that had not yet been subjected to any nuclear or cellular processing. Because both miR-9 and miR-374 had broader localization profiles along the nephron, the inventors isolated the TALH tubular cells for pri-miRNA analyses from the mouse kidney described elsewhere in this study. WT mice (strain: C57BL/6) were treated with NPS2143 or cinacalcet as described for claudin-14 analyses and assayed for pri-miRNA levels in isolated TALH cells at 2 hrs and 8 hrs respectively. […] NPS2143 and cinacalcet also profoundly regulated pri-miR-374. […] The expression levels of miR-9-1 and miR-374 genes were both inversely correlated with that of claudin-14 gene in the kidney, compatible with the silencing role of microRNA in regulating its target gene.
(§4) Total RNA including microRNA was extracted using Trizol (Invitrogen). Cellular mRNA was reverse transcribed using the Superscript-III kit (Invitrogen), followed by real-time PCR amplification using SYBR Green PCR Master Mix (Bio-Rad) and Eppendorf Realplex2S system. The design of claudin-14 primers was described before by Gong et al., 2012. The design of pri-miRNA primers and ChIP primers was according to Gong et al., 2013. Results were expressed as 2^−ΔCt values with ΔCT=Ctgene−Ctβ-actin.
as §4, with “by Gong. Y.,” for “by Gong”, “primers” for “primers and ChIP primers”, “to Ma. L.,” for “to Gong”, “al., 2010.” for “al., 2013.”

pri-miR-9-1 = pri-miR-9-1 transcript levels in TALH of treated mouse kidneys (real-time PCR); type: in vivo; conditions: for changes in pri-miR-9-1 levels: by 8 hrs
From the text: as §2, §3, §4
as §4, with “by Gong. Y.,” for “by Gong”, “primers” for “primers and ChIP primers”, “to Ma. L.,” for “to Gong”, “al., 2010.” for “al., 2013.”

miR-374 promoter = assay: ChIP over miR-374 promoter in TALH cells of treated mice; type: in vivo, mouse; conditions: for H3K9 and H3K14 acetylation levels, miR-374 promoter region / fold enrichment of NFATc1 over miR-374 promoter region: 30 mg/kg BW−1, 2 hrs; for H3K9 and H3K14 acetylation levels, miR-374 promoter region: higher than vehicle level; for fold enrichment of NFATc1 over miR-374 promoter region: versus vehicle
Method: (§5) Freshly isolated TALH cells or primary TALH cell cultures were cross-linked in 1% paraformaldehyde (pH7.0) for 10 min at room temperature. The cross-linked cells were lysed following to instruction of MAGnify ChIP system (Invitrogen). Chromatin was sonicated into 500 bp fragments with Bioruptor UCD-200 (High power, 15 cycles of 30 seconds ON, 30 seconds OFF; Diagenode). Sheared chromatin was precipitated with antibody-bound Dynabeads (Invitrogen). Following reverse crosslink and DNA extraction, antibody-bound DNA was eluted and analyzed with real-time PCR. Two criteria for normalization were applied: fold enrichment over anti-IgG background signal and input control over chromatin input signal.
as §5, with “OFF,” for “OFF;”

[1] = TPTX mice, 30 mg/kg BW−1, 2 hrs
[2] = cyclosporine-A pre-treated animals, 30 mg/kg BW−1, 2 hrs

C[C@@H](NCCCc1cccc(C(F)(F)F)c1)c1cccc2ccccc12 [cinacalcet]
claudin-14 protein levels, change (claudin-14 protein): Neither NPS2143 nor cinacalcet caused changes | claudin-14 protein levels, upregulation (claudin-14 protein; single oral dose 30 mg/kg BW−1, 2 hrs): 2.98 fold | pri-miR-374, downregulation (pri-miR-374; 30 mg/kg BW−1, 2 hrs): 71% | pri-miR-374 levels versus control (pri-miR-374; 30 mg/kg BW−1): not different from control | pri-miR-374 level, reduction (pri-miR-374; [1]): 53% | pri-miR-374 mRNA levels, decrease (pri-miR-374; [2]): 39% | pri-miR-9-1 transcript level, decrease (pri-miR-9-1; 30 mg/kg BW−1, 2 hrs): 88% | changes in pri-miR-9-1 levels (pri-miR-9-1; 30 mg/kg BW−1): dissipated completely | pri-miR-9-1 level, reduction (pri-miR-9-1; [1]): 55% | pri-miR-9-1 mRNA levels, decrease (pri-miR-9-1; [2]): 34% | H3K9 and H3K14 acetylation levels, miR-374 promoter region (miR-374 promoter): not | fold enrichment of NFATc1 over miR-374 promoter region (miR-374 promoter): without significant effect

O=C(CCCCCCC(=O)Nc1ccccc1)NO [SAHA, Suberanilohydroxamic acid]
CLDN14 protein levels, reduction (claudin-14 protein; 25 mg/kg BW−1, 4 hr): 60% | transcriptional levels of miR-374 gene (pri-miR-374), increase (pri-miR-374; 25 mg/kg BW−1, 4 hrs): 1.85 fold | transcriptional levels of miR-9-1 gene (pri-miR-9-1), increase (pri-miR-9-1; 25 mg/kg BW−1, 4 hrs): 1.49 fold | H3K9 and H3K14 acetylation, miR-374 promoter, increase (miR-374 promoter; 25 mg/kg BW−1, 4 hrs): 2.45 fold | NFAT binding to miR-374 promoter (miR-374 promoter; 25 mg/kg BW−1, 4 hrs): not affected

CC(C)(Cc1ccc2ccccc2c1)NC[C@@H](O)COc1cccc(Cl)c1C#N [NPS2143]
claudin-14 protein levels, change (claudin-14 protein): Neither NPS2143 nor cinacalcet caused changes | claudin-14 protein levels, percent of the vehicle treatment (claudin-14 protein; single oral dose 30 mg/kg BW−1, 2 hrs, densitometric scale): 32% | pri-miR-374, upregulation (pri-miR-374; 30 mg/kg BW−1, 2 hrs): 2.91 fold | pri-miR-374 levels versus control (pri-miR-374; 30 mg/kg BW−1): not different from control | pri-miR-374 level, change (pri-miR-374; TPTX mice, 30 mg/kg BW−1): failed to elicit a significant change | pri-miR-374 mRNA levels, change (pri-miR-374; [2]): failed to elicit any significant change | changes in pri-miR-9-1 levels (pri-miR-9-1; 30 mg/kg BW−1): dissipated completely | pri-miR-9-1 level, increase (pri-miR-9-1; TPTX mice, 30 mg/kg BW−1): 19% | pri-miR-9-1 mRNA levels, change (pri-miR-9-1; [2]): failed to elicit any significant change | pri-miR-9-1 transcript level, increase (pri-miR-9-1; single-dose 30 mg/kg BW−1, 2 hrs): 7.65 fold | H3K9 and H3K14 acetylation levels, miR-374 promoter region (miR-374 promoter): 1.93 fold | fold enrichment of NFATc1 over miR-374 promoter region (miR-374 promoter): 1.51 fold
